From patent US12173018B2, “Penicillin-binding protein inhibitors” (priority 2018, dated 2024)
Values after ≈ are worked out from the molar mass of the structure shown. Where two headings read alike, the source gives them in different places.

Legend:
Format in all cases: cell-based
A. baumannii ATCC 19606 = test: Broth microdilution MIC, A. baumannii ATCC 19606; conditions: Acinetobacter baumannii
How it was run: (§1)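 Following CLSI guidance, growth inhibition is measured in Mueller-Hinton broth with divalent cations. Inoculum 5×10^5 CFU/mL; incubation 16-20 hours, 37° C; endpoint is visual absence of growth.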

E. coli AG100 = test: Broth microdilution MIC, E. coli AG100 (wild-type parent); conditions: Escherichia coli; wild-type parent E. coli AG100, broth microdilution; read-out: MIC E. coli AG100
How it was run: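 Starting inoculum of 5×10^5 CFU/mL, from colonies grown 3-5 h in Mueller-Hinton broth with divalent cations, added to two-fold compound dilution series.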

[1] = system: N. gonorrhoeae ATCC 49226; test: Liquid broth MIC, N. gonorrhoeae ATCC 49226; conditions: Neisseria gonorrhoeae, ATCC49226; N. gonorrhoeae ATCC 49226, liquid broth; read-out: Minimum Inhibitory Concentration, N. gonorrhoeae ATCC 49226
How it was run: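 Colonies sub-cultured 24 h earlier on supplemented GC agar are suspended in broth, adjusted by optical density at 600 nm and added to 2-fold serial compound dilutions at 5×10^5 CFU/mL. Plates incubate 40-42 hours at 36° C with 5% CO2 before visual MIC reading.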

K. pneumoniae SI-117 = test: microbe, parasite or virus in culture; conditions: Klebsiella pneumoniae, SI117, read-out: MIC K. pneumoniae SI-117
How it was run: as §1

E. coli D22 = test: microbe, parasite or virus in culture; conditions: Escherichia coli; hyper-permeable E. coli D22, broth microdilution; read-out: MIC E. coli D22
How it was run: as §1

K. pneumoniae UMM = test: microbe, parasite or virus in culture; conditions: Klebsiella pneumoniae; K. pneumoniae UMM producing SHV-5 and KPC-2; read-out: MIC K. pneumoniae UMM
How it was run: as §1

P. aeruginosa ATCC 35151 = test: microbe, parasite or virus in culture; conditions: Pseudomonas aeruginosa, ATCC35151; hyper-permeable P. aeruginosa ATCC 35151; read-out: MIC P. aeruginosa ATCC 35151
How it was run: as §1

E. coli 901C = test: microbe, parasite or virus in culture; conditions: Escherichia coli; hyper-permeable E. coli 901C, broth microdilution; read-out: MIC E. coli 901C
How it was run: as §1

E. coli AG100A = test: microbe, parasite or virus in culture; conditions: Escherichia coli, read-out: MIC E. coli AG100A
How it was run: as §1

[2] = system: P. aeruginosa (ΔmexAB-oprM); test: microbe, parasite or virus in culture; conditions: Pseudomonas aeruginosa, read-out: MIC P. aeruginosa ΔmexAB-OprM
How it was run: as §1

P. aeruginosa PAO1 = test: Broth microdilution MIC, P. aeruginosa PAO1; conditions: Pseudomonas aeruginosa
How it was run: as §1

[3] = ATCC19606, A. baumannii ATCC 19606, broth microdilution, read-out: MIC A. baumannii ATCC 19606
[4] = P. aeruginosa PAO1, broth microdilution, read-out: MIC P. aeruginosa PAO1

Row | Compound | MIC (A. baumannii ATCC 19606; [3]) [µg/mL] | MIC (E. coli AG100) [µg/mL] | MIC [1] [µg/mL] | MIC (K. pneumoniae SI-117) [µg/mL] | MIC (E. coli D22) [µg/mL] | MIC (K. pneumoniae UMM) [µg/mL] | MIC (P. aeruginosa ATCC 35151) [µg/mL] | MIC (E. coli 901C) [µg/mL] | MIC (E. coli AG100A) [µg/mL] | MIC [2] [µg/mL] | MIC (P. aeruginosa PAO1; [4]) [µg/mL] | MIC (A. baumannii ATCC 19606; ATCC19606, read-out: MIC A. baumannii ATCC 19606) [µg/mL] | MIC (P. aeruginosa PAO1; PAO1, read-out: MIC P. aeruginosa PAO1) [µg/mL]
1 | NS(=O)(=O)c1ccc(C(NC(=O)N2CCN(CCF)C(=O)C2=O)C(=O)N[C@H]2Cc3ccc(F)c(C(=O)O)c3OB2O)cc1 (stereo partly drawn) [Example 182, (3R)-7-fluoro-3-(2-(4-(2-fluoroethyl)-2,3-dioxopiperazine-1-carboxamido)-2-(4-sulfamoylphenyl)acetamido)-2-hydroxy-3,4-dihydro-2H-benzo[e][1,2]oxaborinine-8-carboxylic acid] | > 128 | > 128 | 4 to 8 (≈ 6.42 to 12.8 µM) | > 128 | 2 to 4 | 32 to 64 | 0.5 to 1 | 0.5 to 1 | 32 to 64 | 8 to 16 | > 128 |  | 
2 | O=C(O)c1c(F)ccc2c1OB(O)[C@@H](NC(=O)C(NC(=O)N1CCN(CCF)C(=O)C1=O)c1ncc(O)cc1F)C2 (stereo partly drawn) [Example 183, (3R)-7-fluoro-3-(2-(3-fluoro-5-hydroxypyridin-2-yl)-2-(4-(2-fluoroethyl)-2,3-dioxopiperazine-1-carboxamido)acetamido)-2-hydroxy-3,4-dihydro-2H-benzo[e][1,2]oxaborinine-8-carboxylic acid] | > 128 | 8 to 16 | 0.25 to 0.5 (≈ 0.432 to 0.863 µM) | 32 to 64 | 2 to 4 | 8 to 16 | < 0.25 | < 0.25 | 2 to 4 | 32 to 64 | > 128 |  | 
3 | CCN1CCN(C(=O)N[C@H](C(=O)N[C@H]2Cc3ccc(F)c(C(=O)O)c3OB2O)c2ccc(O)c(O)c2Cl)C(=O)C1=O [Example 188, (R)-3-((S)-2-(2-chloro-3,4-dihydroxyphenyl)-2-(4-ethyl-2,3-dioxopiperazine-1-carboxamido)acetamido)-7-fluoro-2-hydroxy-3,4-dihydro-2H-benzo[e][1,2]oxaborinine-8-carboxylic acid] | 32 to 64 | 8 to 16 | 16 to 32 (≈ 27 to 54 µM) | 32 to 64 | 8 to 16 | > 128 | 0.5 to 1 | 2 to 4 | 8 to 16 | 0.5 to 1 | 8 to 16 |  | 
4 | CCN1CCN(C(=O)N[C@@H](C(=O)N[C@H]2Cc3ccc(F)c(C(=O)O)c3OB2O)c2ccc(O)c(O)c2Cl)C(=O)C1=O [Example 189, (R)-3-((R)-2-(2-chloro-3,4-dihydroxyphenyl)-2-(4-ethyl-2,3-dioxopiperazine-1-carboxamido)acetamido)-7-fluoro-2-hydroxy-3,4-dihydro-2H-benzo[e][1,2]oxaborinine-8-carboxylic acid] | < 0.25 | 2 to 4 | 1 to 2 (≈ 1.69 to 3.37 µM) | 0.5 to 1 | 0.5 to 1 | 0.5 to 1 | < 0.25 | 0.5 to 1 | 0.5 to 1 | < 0.25 | < 0.25 |  | 
5 | CCN1CCN(C(=O)N[C@@H](C(=O)N[C@H]2Cc3cccc(C(=O)O)c3OB2O)c2ccc(O)c(O)c2Cl)C(=O)C1=O [Example 190, (R)-3-((R)-2-(2-chloro-3,4-dihydroxyphenyl)-2-(4-ethyl-2,3-dioxopiperazine-1-carboxamido)acetamido)-2-hydroxy-3,4-dihydro-2H-benzo[e][1,2]oxaborinine-8-carboxylic acid] | < 0.25 | 0.5 to 1 | 1 to 2 (≈ 1.74 to 3.48 µM) | 2 to 4 | 0.5 to 1 | 0.5 to 1 | < 0.25 | < 0.25 | < 0.25 | < 0.25 | 0.5 to 1 |  | 
6 | CCN1C[C@@H](C)N(C(=O)NC(C(=O)N[C@H]2Cc3cccc(C(=O)O)c3OB2O)c2ncc(O)cc2F)C(=O)C1=O (stereo partly drawn) [Example 191, (3R)-3-(2-((R)-4-ethyl-6-methyl-2,3-dioxopiperazine-1-carboxamido)-2-(3-fluoro-5-hydroxypyridin-2-yl)acetamido)-2-hydroxy-3,4-dihydro-2H-benzo[e][1,2]oxaborinine-8-carboxylic acid] | > 128 | > 128 | > 64 | > 128 | 8 to 16 | > 128 | 2 to 4 | 0.5 to 1 | 8 to 16 | 32 to 64 | > 128 |  | 
7 | CCN1CCN(C(=O)NC(C(=O)N[C@H]2Cc3ccc(F)c(C(=O)O)c3OB2O)c2ccc(O)c(O)c2Cl)C(O)C1=O (stereo partly drawn) [Example 194, (3R)-3-(2-(2-chloro-3,4-dihydroxyphenyl)-2-(4-ethyl-2-hydroxy-3-oxopiperazine-1-carboxamido)acetamido)-7-fluoro-2-hydroxy-3,4-dihydro-2H-benzo[e][1,2]oxaborinine-8-carboxylic acid] |  | 8 to 16 | 16 to 32 (≈ 26.9 to 53.8 µM) | 8 to 16 | 8 to 16 | 8 to 16 | < 0.25 | 8 to 16 | 8 to 16 | 0.5 to 1 |  | 0.5 to 1 | 8 to 16
8 | NS(=O)(=O)c1ccc(C(NC(=O)N2CCN(CCF)C(=O)C2=O)C(=O)N[C@H]2Cc3cccc(C(=O)O)c3OB2O)c(F)c1 (stereo partly drawn) [Example 204, (3R)-3-(2-(2-fluoro-4-sulfamoylphenyl)-2-(4-(2-fluoroethyl)-2,3-dioxopiperazine-1-carboxamido)acetamido)-2-hydroxy-3,4-dihydro-2H-benzo[e][1,2]oxaborinine-8-carboxylic acid] | > 128 | 32 to 64 | 1 to 2 (≈ 1.6 to 3.21 µM) | > 128 | 2 to 4 | 32 to 64 | 0.5 to 1 | < 0.25 | 2 to 4 | 8 to 16 | > 128 |  | 
9 | CCN1CCN(C(=O)NC(C(=O)N[C@H]2Cc3cccc(C(=O)O)c3OB2O)c2nc(N)sc2F)C(=O)C1=O (stereo partly drawn) [Example 205, (3R)-3-(2-(2-amino-5-fluorothiazol-4-yl)-2-(4-ethyl-2,3-dioxopiperazine-1-carboxamido)acetamido)-2-hydroxy-3,4-dihydro-2H-benzo[e][1,2]oxaborinine-8-carboxylic acid] | 32 to 64 | 8 to 16 | < 0.125 | 32 to 64 | 0.5 to 1 | > 128 | < 0.25 | < 0.25 | 0.5 to 1 | 2 to 4 | > 128 |  | 
10 | CCN1C[C@H](C)N(C(=O)NC(C(=O)N[C@H]2Cc3ccc(F)c(C(=O)O)c3OB2O)c2ccc(O)c(O)c2Cl)C(=O)C1=O (stereo partly drawn) [Example 206, (3R)-3-(2-(2-chloro-3,4-dihydroxyphenyl)-2-((S)-4-ethyl-6-methyl-2,3-dioxopiperazine-1-carboxamido)acetamido)-7-fluoro-2-hydroxy-3,4-dihydro-2H-benzo[e][1,2]oxaborinine-8-carboxylic acid] | < 0.25 | 0.5 to 1 | 4 to 8 (≈ 6.59 to 13.2 µM) | 2 to 4 | 0.5 to 1 | 2 to 4 | < 0.25 | < 0.25 | < 0.25 | < 0.25 | 2 to 4 |  | 
